Source: patent US20190358196A1, “PI 4-KINASE INHIBITOR AS A THERAPEUTIC FOR VIRAL HEPATITIS, CANCER, MALARIA. AUTOIMMUNE DISORDERS AND INFLAMMATION, AND A RADIOSENSITIZER AND IMMUNOSUPPRESSANT” (priority 2016, published 2019)

Key:
PI4Ka = PI4Ka (Homo sapiens, UniProt P42356); test: HotSpot lipid kinase inhibition assay
[1] = test system: cell culture-derived HCV (HCVcc)

Sequence of PI4Ka (P42356 whole entry): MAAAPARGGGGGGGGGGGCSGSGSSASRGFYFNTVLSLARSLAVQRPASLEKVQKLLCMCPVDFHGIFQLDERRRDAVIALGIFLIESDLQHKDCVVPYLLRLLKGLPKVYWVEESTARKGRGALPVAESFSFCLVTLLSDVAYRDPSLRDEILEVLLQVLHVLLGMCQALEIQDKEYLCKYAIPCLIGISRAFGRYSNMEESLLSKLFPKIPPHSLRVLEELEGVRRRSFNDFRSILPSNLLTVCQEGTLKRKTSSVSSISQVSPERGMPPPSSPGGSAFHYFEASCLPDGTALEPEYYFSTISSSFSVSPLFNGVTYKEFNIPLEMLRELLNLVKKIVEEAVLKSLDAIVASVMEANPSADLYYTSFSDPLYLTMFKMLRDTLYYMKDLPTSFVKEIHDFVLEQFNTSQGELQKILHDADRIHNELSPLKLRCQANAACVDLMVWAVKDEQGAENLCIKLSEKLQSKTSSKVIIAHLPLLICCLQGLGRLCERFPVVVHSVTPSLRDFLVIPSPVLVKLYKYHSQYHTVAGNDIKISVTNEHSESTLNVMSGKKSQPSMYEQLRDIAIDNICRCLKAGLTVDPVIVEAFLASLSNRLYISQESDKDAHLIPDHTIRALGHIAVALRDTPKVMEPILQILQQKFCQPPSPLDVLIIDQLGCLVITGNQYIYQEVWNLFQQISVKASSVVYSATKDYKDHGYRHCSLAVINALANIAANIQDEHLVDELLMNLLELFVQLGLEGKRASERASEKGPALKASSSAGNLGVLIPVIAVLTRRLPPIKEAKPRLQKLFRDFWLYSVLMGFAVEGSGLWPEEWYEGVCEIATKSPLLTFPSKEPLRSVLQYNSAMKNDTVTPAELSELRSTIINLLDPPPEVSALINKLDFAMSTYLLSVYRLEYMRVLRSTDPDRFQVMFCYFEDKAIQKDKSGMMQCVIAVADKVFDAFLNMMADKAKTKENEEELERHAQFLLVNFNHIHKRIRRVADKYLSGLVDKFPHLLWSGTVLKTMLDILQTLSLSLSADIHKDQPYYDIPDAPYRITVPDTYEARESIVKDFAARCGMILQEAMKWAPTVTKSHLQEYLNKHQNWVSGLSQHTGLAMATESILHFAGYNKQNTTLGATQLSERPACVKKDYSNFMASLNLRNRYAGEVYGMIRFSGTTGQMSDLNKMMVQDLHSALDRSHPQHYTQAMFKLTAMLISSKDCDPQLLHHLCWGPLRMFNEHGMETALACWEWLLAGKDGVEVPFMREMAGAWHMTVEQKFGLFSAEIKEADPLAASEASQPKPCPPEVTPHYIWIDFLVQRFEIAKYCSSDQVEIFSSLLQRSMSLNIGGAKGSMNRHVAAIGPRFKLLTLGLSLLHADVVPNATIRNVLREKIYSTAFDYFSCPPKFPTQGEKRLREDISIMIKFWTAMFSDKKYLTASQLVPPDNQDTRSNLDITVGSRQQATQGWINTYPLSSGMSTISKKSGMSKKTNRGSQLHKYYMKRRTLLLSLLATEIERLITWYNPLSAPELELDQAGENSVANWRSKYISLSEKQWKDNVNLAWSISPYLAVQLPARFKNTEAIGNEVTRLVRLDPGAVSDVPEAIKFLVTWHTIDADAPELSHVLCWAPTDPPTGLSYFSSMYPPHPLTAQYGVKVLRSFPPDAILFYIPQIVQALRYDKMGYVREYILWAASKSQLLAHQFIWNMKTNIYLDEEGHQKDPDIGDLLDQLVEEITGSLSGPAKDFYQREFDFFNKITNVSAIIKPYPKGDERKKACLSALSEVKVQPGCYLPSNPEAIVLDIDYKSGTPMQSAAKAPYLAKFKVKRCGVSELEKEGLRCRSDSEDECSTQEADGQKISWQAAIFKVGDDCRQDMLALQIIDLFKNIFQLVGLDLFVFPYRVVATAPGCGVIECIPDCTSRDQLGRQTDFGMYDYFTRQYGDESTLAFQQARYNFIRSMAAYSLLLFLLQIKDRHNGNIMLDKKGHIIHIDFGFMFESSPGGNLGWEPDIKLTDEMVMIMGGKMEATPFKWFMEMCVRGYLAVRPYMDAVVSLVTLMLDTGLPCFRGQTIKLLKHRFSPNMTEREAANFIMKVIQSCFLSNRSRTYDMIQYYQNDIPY

Row | IC50 (PI4Ka) [nM] | Molecule | SI (CC50/EC50) [1]
1 | 322 | Oc1cccc(-c2nc(N3CCOCC3)c3oc4ncccc4c3n2)c1 [PI-103] | –
2 | – | Human interferon alpha-2b [rIFNa-2b] | >15.9
